How the values were obtained:
[1] = test system: patients with acute respiratory distress Syndrome (ARDS) caused by sepsis; conditions: cited from earlier work
[2] = test system: inducible NO (iNO) and another ROS; assay: Inducible NO, ROS and coagulation disorder induced by LPS sepsis
[3] = test system: sepsis and sepsis related ARDS; assay: Overall effect on sepsis and sepsis related ARDS; conditions: in vivo
[4] = test system: tissue of lung, heart or kidney; assay: Pathological examination of organs in sepsis; assay type: in vivo
[5] = test system: INFs, IL-1B, IL-2,4,6,10,12, TNFa and MCP; assay: Cytokine storm in sepsis, production and release of cytokines
[6] = test system: macrophages from the peritoneal fluid; assay: LPS induced proliferation and polarization of macrophages from the peritoneal fluid; assay type: in vivo; conditions: for polarized M1 macrophages or M2 macrophages: in comparison of sepsis condition
[7] = test system: inflammatory cells, such as WBC, neutrophils and monocytes; assay: Systemic inflammatory cells in sepsis; assay type: in vivo
[8] = test system: sepsis by high doses LPS challenge; assay: LPS sepsis, mortality of mice; assay type: in vivo; conditions: for survival: high doses LPS challenge; for mortality: high doses LPS challenge (100% mortality without treatment)
NF-κB and MARK pathways = NF-κB and MARK pathways activated by LPS in sepsis
[9] = test system: bronchial hyper-responsiveness induced by LPS sepsis; assay: Lung function and bronchial hyper-responsiveness in LPS sepsis; assay type: in vivo; conditions: for bronchial hyper-responsiveness: induced by LPS sepsis

Structure (SMILES) | coagulating system disorder such as disseminated intravascular coagulation (DIC) [2] | over production of inducible NO (iNO) and another ROS [2] | effect on sepsis and sepsis related ARDS [3] | pathological changes (inflammatory infiltration, edema, lesions, apoptosis) in lung, heart or kidney [4] | production and release of cytokines [5] | polarized M1 macrophages or M2 macrophages [6] | increase of inflammatory cells (WBC, neutrophils, monocytes) [7] | survival [8] | mortality [8] | NF-κB and MARK pathways (expression or phosphorylation) (NF-κB and MARK pathways) | bronchial hyper-responsiveness [9] | also measured
CC(C)(C)NCC(O)c1ccc(O)c(CO)c1 (racemic) [salbutamol] | – | – | – | – | – | – | – | – | – | – | – | ICU mortality and hospital mortality in comparing with placebo [1]: significantly increased; increase of mortality in comparing with placebo ([1]; salbutamol infusion): 11%
CC(C)(C)NC[C@H](O)c1ccc(O)c(CO)c1 [(R)-salbutamol] | prevent | significantly prevent and inhibit | very effective | greatly ameliorated and improved | significantly reduced | significant reduction | significantly inhibite | most of animal survived | greatly reduced | – | – | number of macrophages from the peritoneal fluid ([6]; LPS induced): significantly reduced toward normal level
CC(C)(C)NC[C@H](O)c1cc(O)cc(O)c1 [(R)-terbutaline] | prevent | significantly prevent and inhibit | very effective | greatly ameliorated and improved | significantly reduced | – | significantly inhibite | most of animal survived | greatly reduced | significantly inhibited | significantly ameliorated | arterial oxygenation ([9]; sepsis): maintain a normal arterial oxygenation; deterioration of lung function ([9]; sepsis): prevent or restored the deterioration
CC(C)(C)NC[C@@H](O)c1ccc(O)c(CO)c1 [(S)-salbutamol] | – | – | increase the risk of sepsis or worsen sepsis | further worsened | – | – | – | – | – | – | – | –
OCc1cc([C@H](O)CNCCCCCCOCCCCc2ccccc2)ccc1O [(S)-salmeterol] | – | – | – | – | – | further increased | – | – | – | – | – | –
CC(C)(C)NC[C@@H](O)c1cc(O)cc(O)c1 [(S)-terbutaline] | – | – | increase the risk of sepsis or worsen sepsis | further worsened | – | – | further increased | – | – | further enhanced | further worsened | –

From patent publication US20240033232A1, “New use of (R)-B2-agonists in treatment of sepsis and acute respiratory distress syndrome” (priority 2021, published 2024)
